Series [1] is described as follows: Phase-transfer extraction of the hyperpolarized product into water: 13C signal enhancement and amount transferred. In kind it is physicochemical.
Experimental: After the field cycling application, the tube was quickly opened and 0.4 mL of degassed D2O were added; the tube was shaken vigorously for three seconds and then let stand for five seconds, during which phase separation occurred. The water solution was taken by a syringe and transferred into a tube for NMR acquisition.
A short description of a further series: Solubility in water. In kind it is physicochemical. Particulars: compared with alkyne A. From the text:
The symmetrical alkyne A, whose formula is reported below, was synthesized by transesterification of the acetylene bis-carboxylic acid bismethyl ester with diethyleneglycol monomethyl ether, in the presence of H2SO4 as catalyst.

For the compound `COCCOCCOC(=O)/C=C\C(=O)OCCOCCOC` [B], the “quantity transferred into the water phase” value in series [1] (CDCl3/acetone-d6 (6:1) versus D2O, equal volumes) is listed as “about 10 % of the total”. For the same compound, the solubility in water entry in “Solubility in water” is listed as “higher than that of the alkyne A”. For the compound `O=C(O)CCC(=O)O` [succinic acid], the “transfer to the water phase” value in series [1] (after hydrolysis with 0.25 M NaOH in D2O, CDCl3/acetone-d6 6:1) is reported as “All the succinic acid was transferred to the water phase”.
